Results as given in ChEMBL document CHEMBL5380809, “Discovery of Novel N-Hydroxy-1,2,4-oxadiazole-5-formamides as ASM Direct Inhibitors for the Treatment of Atherosclerosis” (J Med Chem, 2023).
Activity calls are given as the source filed them. The calls are words filed in the database; no cut-off is given here.

What was measured:
[1] = biological target: T1, Sphingomyelin phosphodiesterase (Homo sapiens, UniProt P17405); assay: Inhibition of recombinant human aSMase (62 to 628 residues) using HMU-PC as substrate incubated for 2 hrs by fluorescence based assay
T1 sequence (P17405 whole entry): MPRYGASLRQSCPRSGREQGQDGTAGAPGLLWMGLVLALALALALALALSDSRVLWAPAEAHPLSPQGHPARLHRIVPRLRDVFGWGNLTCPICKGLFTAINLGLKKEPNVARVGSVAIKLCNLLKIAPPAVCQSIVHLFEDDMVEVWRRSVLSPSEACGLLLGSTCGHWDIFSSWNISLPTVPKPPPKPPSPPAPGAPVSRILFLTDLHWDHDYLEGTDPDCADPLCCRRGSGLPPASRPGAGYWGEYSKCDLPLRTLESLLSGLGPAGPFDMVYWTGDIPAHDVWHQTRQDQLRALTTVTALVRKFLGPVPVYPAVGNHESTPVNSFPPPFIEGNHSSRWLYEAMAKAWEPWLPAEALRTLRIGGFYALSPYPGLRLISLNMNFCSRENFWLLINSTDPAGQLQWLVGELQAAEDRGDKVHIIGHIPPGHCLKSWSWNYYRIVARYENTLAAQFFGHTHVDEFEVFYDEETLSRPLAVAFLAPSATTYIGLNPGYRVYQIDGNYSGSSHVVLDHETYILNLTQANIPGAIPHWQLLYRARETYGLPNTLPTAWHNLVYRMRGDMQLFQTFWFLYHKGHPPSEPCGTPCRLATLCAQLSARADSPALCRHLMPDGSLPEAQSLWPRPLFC

[2] = test system: HUVEC; assay: Cytotoxicity against HUVEC cells assessed as cell growth inhibition at 0.5 to 20 uM incubated for 24 to 48 hrs by MTT assay; type: toxicity, cell-based; conditions: human, dose lower 0.5 µM, time lower 24 hrs, dose upper 20 µM, time upper 48 hrs
[3] = biological target: T2, Sphingomyelin phosphodiesterase (Homo sapiens) (UniProt P17405); assay: Inhibition of recombinant human aSMase (62 to 628 residues) using HMU-PC as substrate at 50 uM incubated for 2 hrs by fluorescence based assay relative to control
T2 sequence (whole entry): T1 sequence (P17405 whole entry)

[4] = biological target: T2, Sphingomyelin phosphodiesterase (Homo sapiens); assay: Inhibition of recombinant human aSMase (62 to 628 residues) using HMU-PC as substrate at 50 uM incubated for 2 hrs by fluorescence based assay
[5] = biological target: T2, Sphingomyelin phosphodiesterase (Homo sapiens); assay: Inhibition of recombinant human aSMase (62 to 628 residues) using HMU-PC as substrate at 25 uM incubated for 2 hrs by fluorescence based assay relative to control
[6] = Inhibition of rat brain aSMase using HMU-PC as substrate incubated for 3 hrs by fluorescence based assay; type: tissue-based
[7] = test system: Mus musculus; assay: Antiatherosclerotic activity in high-fat diet fed ApoE-/- mouse assessed as reduction in plasma LDL-C level at 20 mg/kg measured after 8 weeks; type: functional, organism-based
[8] = test system: Mus musculus; assay: Antiatherosclerotic activity in high-fat diet fed ApoE-/- mouse assessed as reduction in aortic arch lipid accumulation at 20 mg/kg measured after 8 weeks; type: functional, organism-based
[9] = test system: Mus musculus; assay: Antiatherosclerotic activity in high-fat diet fed ApoE-/- mouse assessed as reduction in plasma Ox-LDL-C level at 20 mg/kg measured after 8 weeks; type: functional, organism-based
[10] = test system: Mus musculus; assay: Antiatherosclerotic activity in high-fat diet fed ApoE-/- mouse assessed as reduction in plasma total cholesterol level at 20 mg/kg measured after 8 weeks; type: functional, organism-based
[11] = test system: Mus musculus; assay: Antiatherosclerotic activity in high-fat diet fed ApoE-/- mouse assessed as reduction in plasma total triacylglycerol level at 20 mg/kg measured after 8 weeks; type: functional, organism-based
[12] = Cytotoxicity against HUVEC cells assessed as cell growth inhibition incubated for 24 hrs by MTT assay; type: toxicity, cell-based; conditions: human
[13] = Cytotoxicity against HUVEC cells assessed as cell growth inhibition incubated for 48 hrs by MTT assay; type: toxicity, cell-based; conditions: human

O=C(NO)c1nnc(-c2ccc(-c3ccc(Cl)cc3)cc2)o1
IC50 [1]: 0.51 µM

CC(C)COc1ccc(-c2nnc(C(=O)NO)o2)cc1
IC50 [1]: 0.81 µM | Activity [2]: Non-Toxic

O=C(Cc1noc(-c2ccc(Br)cc2)n1)NO
IC50 [1]: > 50 µM | inhibition [3]: < 50%

O=C(CCCOc1ccc(-c2ccc(Cl)cc2)cc1)NO
inhibition [4]: inactive

CCCCOc1ccc(-c2nnc(C(=O)NO)o2)cc1
inhibition [5]: 13% | inhibition [4]: inactive

O=C(NO)c1nc(COc2ccc(-c3ccc(Cl)cc3)cc2)no1
IC50 [1]: 0.47 µM

O=C(Cc1nc(-c2ccc(COc3ccccc3)cc2)no1)NO
inhibition [4]: inactive

CCCCOc1ccc(-c2cc(C(=O)NO)no2)cc1
IC50 [1]: 1 µM

COc1cc(-c2nnc(C(=O)NO)o2)ccc1OCc1ccccc1
inhibition [5]: 60%

O=C(NO)c1nc(COc2ccc(-c3ccccc3)cc2)no1
IC50 [1]: 0.83 µM

O=C(Cc1nc(-c2ccc(COc3ccc(Br)cc3)cc2)no1)NO
inhibition [4]: inactive

COc1cc(-c2nnc(C(=O)NO)o2)ccc1OCC(C)C
inhibition [5]: 55%

O=C(NO)c1nnc(-c2ccc(OCc3ccccc3)cc2)o1
inhibition [5]: 3%

O=C(NO)c1noc(-c2ccc(Br)cc2)n1
IC50 [1]: 37.3 µM

O=C(NO)c1nc(-c2ccc(CNc3ccc(C(F)(F)F)cc3)cc2)no1
inhibition [4]: inactive

O=C(NO)c1nc(-c2ccc(CNc3ccc(Cl)cc3)cc2)no1
inhibition [4]: inactive

O=C(NO)c1nc(-c2ccc(COc3ccccc3Cl)cc2)no1
inhibition [4]: inactive

CCCCOc1ccc(-c2nnc(C(=O)NO)o2)cc1OC
inhibition [5]: 57%

COc1c(O)cc2oc3cc(O)c(CC=C(C)C)c(O)c3c(=O)c2c1CC=C(C)C [MANGOSTIN]
IC50 [6]: 14.1 µM

O=C(NO)c1cc(-c2ccc(-c3ccc(Cl)cc3)cc2)on1
IC50 [1]: > 50 µM | inhibition [3]: < 50%

O=C(NO)c1nc(-c2ccc(COc3cccc(Cl)c3)cc2)no1
IC50 [1]: 8.4 µM

O=C(NO)c1nc(-c2ccc(COc3ccc(Cl)cc3)cc2)no1
IC50 [1]: 4.2 µM

CCC(C)(C)C(=O)O[C@H]1C[C@@H](C)C=C2C=C[C@H](C)[C@H](CC[C@@H]3C[C@@H](O)CC(=O)O3)[C@H]21
Activity [7]: Active | Activity [8]: Active | Activity [9]: inactive | Activity [10]: Active | Activity [11]: Active

O=C(Cc1noc(COc2ccc(-c3ccc(Cl)cc3)cc2)n1)NO
IC50 [1]: 18.7 µM

O=C(CCCOc1ccc(-c2cccnc2)cc1)NO
inhibition [4]: inactive

O=C(NO)c1cc(-c2ccc(OCc3ccccc3)cc2)on1
IC50 [1]: 7.9 µM

O=C(NO)c1noc(COc2ccc(-c3ccccc3)cc2)n1
IC50 [1]: 4.91 µM

CC(C)COc1ccc(-c2cc(C(=O)NO)no2)cc1
IC50 [1]: 6.73 µM

O=C(Cc1noc(COc2ccc(-c3ccccc3)cc2)n1)NO
IC50 [1]: > 50 µM | inhibition [3]: < 50%

O=C(NO)c1nc(-c2ccc(COc3ccccc3)cc2)no1
IC50 [1]: 3.3 µM

O=C(Cc1noc(-c2ccc(-c3ccc(Cl)cc3)cc2)n1)NO
IC50 [1]: > 50 µM | inhibition [3]: < 50%

O=C(NO)c1nc(-c2ccc(COc3ccc(C(F)(F)F)cc3)cc2)no1
IC50 at 24 h [12]: 79.1 µM | IC50 [1]: 8.1 µM | IC50 at 48 h [13]: 84.3 µM
